Key:
[1] = Stability test under conditions A (30° C. and 65% R.H.); assay type: physicochemical
Protocol: (§1) The monohydrate DF2755A was then subjected to stability tests under the following conditions: • A) at 30° C. and 65% R.H. (up to 18 months) and • B) at 40° C. and 75% R.H. (accelerated stability up to 12 months).
(§2) The samples were analysed for appearance, water content, HPLC purity, HPLC assay, HPLC enantiomeric purity and DSC thermal behaviour.

[2] = Water content by Karl-Fischer of the prepared product; assay type: physicochemical; settings: product as prepared by controlled hydration
Protocol: (§3) • Instrument: Mettler DL38, V30 or equivalent • Electrode: Double platinum pin electrode DM 143-SC for Karl Fischer titration. • Titrant: Karl Fischer reagent 5 mg H2O/ml • Solvent: 30 ml of methanol previously neutralized with Karl Fischer reagent. • Procedure: about 0.2 g of the product, accurately weighed, were dissolved in the solvent and titrated with the Karl Fischer reagent.
[formula] • where • V=ml of the Karl Fischer reagent used in the titration • e=equivalent of the Karl Fischer reagent (mg H2O/ml) • w=weight of the sample in g
(§4) The analysis was carried out on three samples and the results averaged. The limit had to be not more than 10.0%.

[3] = Stability test under accelerated conditions B (40° C. and 75% R.H.); assay type: physicochemical; set-up: key to Appearance: Compl.: Compl: compliant
Protocol: • Apparatus: Agilent HP 1100, HP 1200 or equivalent HPLC system with UV detector • Detector: wavelength: 220 nm • Column: BDS Hypersyl C18, 250×4.6 mm, 5 μm (Thermo) or equivalent • Column temperature: 35° C. • Mobile phase: (A) Buffer solution KH2PO4 0.025M (pH 3.0). Procedure: dissolve 3.4 g of potassium dihydrogen phosphate in water and dilute to 1000 ml with water; adjust to pH 3.0 with dilute phosphoric acid or with potassium hydroxide solutions. (B) acetonitrile. • Flow: 1.3 ml/minute • Injection Volume: 10 μl • Time between injections: 26 min • Diluent: H2O/CH3CN (40/60) • Relative retention time: DF 2755 Rt 11.8 min • Gradient: Table 2
• Chromatographic conditions • Apparatus: Agilent HP 1100, HP 1200 or equivalent HPLC system with UV detector • Detector: wavelength: 294 nm • Column: Chiralpak AS-RH, 150×4.6 mm […] (Daicel) or equivalent • Column temperature: 35° C. • Mobile phase: (A) Buffer solution KH2PO4 0.025M (pH 3.0) Procedure: dissolve 3.4 g of potassium dihydrogen phosphate in water and dilute to 1000 ml with water; adjust to pH 3.0 with dilute phosphoric acid or with potassium hydroxide solutions; (B) acetonitrile • Flow: 0.7 ml/minute • Injection volume: 10 μl • Time between injections: 45 min • Diluent: H2O/CH3CN (40/60) • Eluent: 70% Mobile phase A, 30% Mobile phase B
as §3, §4, §1, §2

[4] = Tapped and bulk density (Ph. Eur. 2.9.34), compressibility index, Hausner ratio; assay type: physicochemical
Protocol: Tapped and Bulk Density were determined with a density tester ERWEKA SMV 102 (Heusenstamm, Germany) according to European Pharmacopeia (Ph. Eur. 2.9.34).
Compressibility Index was calculated according to the formula:
C.I.=100×(tapped density−bulk density)/tapped density.
Hausner ratio was calculated according to the formula:
H.r.=tapped density/bulk density

[5] = Particle size distribution (Malvern Mastersizer 3000, Aero S); assay type: physicochemical; settings: powder of Example 3A
Protocol: Particle Size Distribution was measured by Malvern Mastersizer 3000 using Aero S accessory.

CXCR1 = molecular target: T1, CXCR1 (Homo sapiens, UniProt P25024); settings: background, literature; cited from earlier work
T1 sequence (P25024 1-350): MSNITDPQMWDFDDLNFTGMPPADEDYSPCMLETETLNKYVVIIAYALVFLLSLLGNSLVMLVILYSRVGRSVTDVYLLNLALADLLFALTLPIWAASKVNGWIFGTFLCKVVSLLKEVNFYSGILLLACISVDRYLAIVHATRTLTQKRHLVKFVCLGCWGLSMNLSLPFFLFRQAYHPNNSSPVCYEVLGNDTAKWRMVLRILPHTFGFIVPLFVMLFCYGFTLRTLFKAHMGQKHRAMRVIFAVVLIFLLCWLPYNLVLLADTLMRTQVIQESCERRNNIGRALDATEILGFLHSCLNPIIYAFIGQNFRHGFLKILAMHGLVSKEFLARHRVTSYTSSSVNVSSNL

CXCR2 = molecular target: T2, CXCR2 (Homo sapiens, UniProt P25025); settings: background, literature; cited from earlier work
T2 sequence (P25025 1-360): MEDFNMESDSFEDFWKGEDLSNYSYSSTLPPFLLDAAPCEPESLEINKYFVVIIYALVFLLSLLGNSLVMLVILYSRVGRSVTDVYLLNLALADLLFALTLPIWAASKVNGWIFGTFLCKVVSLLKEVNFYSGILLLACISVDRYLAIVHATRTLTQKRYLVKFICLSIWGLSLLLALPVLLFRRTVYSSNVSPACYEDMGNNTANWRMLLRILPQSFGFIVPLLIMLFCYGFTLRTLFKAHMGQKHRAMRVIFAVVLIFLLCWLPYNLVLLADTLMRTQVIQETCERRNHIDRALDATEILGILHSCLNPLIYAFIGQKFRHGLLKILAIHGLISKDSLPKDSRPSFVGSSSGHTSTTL

[6] = background, literature; cited from earlier work
[7] = Stability test of anhydrous form in climatic chamber (50% R.H., about 25° C., 24 hours); assay type: physicochemical
Protocol: as §3

[8] = 50% R.H., about 25° C., 24 hours

## C[C@H](C(=O)[O-])c1ccc(Nc2nc(C(F)(F)F)cs2)cc1.O.[Na+] [monohydrate DF2755A, crystalline monohydrate sodium (2S)-2-(4-{[4-(trifluoromethyl)-1,3-thiazol-2-yl]amino}phenyl) propanoate]
[1]; 30° C. and 65% R.H.
  Time completely stable: ≥ 18 months
[1]; 30° C./65% R.H.
  DSC profile over time: substantially the same DSC profile over time
[2]
  Water content by Karl Fisher method: 5.27 % by weight
[3]; 40° C./75% R.H., 0 months
  Assay % (HPLC): 97.40%
  DFL23803 (HPLC) by-product content: ≤0.11%
  Enantiomeric purity % (HPLC): DF2703Y content: 1.0%
  Total impurities content % (HPLC): 0.03%
  Water content (K.F %): 5.27%
[3]; 40° C./75% R.H., 0 months, limit white to ivory powder
  Appearance: Compl.
[3]; 40° C./75% R.H., 1 month
  Appearance: Compl.
  Assay % (HPLC): 96.93%
  DFL23803 (HPLC) by-product content: ≤0.11%
  Enantiomeric purity % (HPLC): DF2703Y content: 1.0%
  Total impurities content % (HPLC): 0.03%
  Water content (K.F %): 5.27%
[3]; 40° C./75% R.H., 3 months
  Appearance: Compl.
  Assay % (HPLC): 97.67%
  DFL23803 (HPLC) by-product content: ≤0.11%
  Enantiomeric purity % (HPLC): DF2703Y content: 1.0%
  Total impurities content % (HPLC): 0.03%
  Water content (K.F %): 5.12%
[3]; 40° C./75% R.H., 6 months
  Appearance: Compl.
  Assay % (HPLC): 96.94%
  DFL23803 (HPLC) by-product content: ≤0.11%
  Enantiomeric purity % (HPLC): DF2703Y content: 1.0%
  Total impurities content % (HPLC): 0.03%
  Water content (K.F %): 4.95%
[3]; 40° C./75% R.H., 12 months
  Appearance: Compl.
  Assay % (HPLC): 100.3%
  DFL23803 (HPLC) by-product content: ≤0.11%
  Enantiomeric purity % (HPLC): DF2703Y content: 1.0%
  Total impurities content % (HPLC): 0.02%
  Water content (K.F %): 5.17%
[3]; accelerated conditions B, 40° C. and 75% R.H.
  Time completely stable: ≥ 12 months
[3]; conditions B, 40° C./75% R.H.
  DSC profile over time: substantially the same DSC profile over time
[3]; unchanged water content for at least 12 months under accelerated stability conditions
  Hygroscopicity: not hygroscopic
[4]; 100×(tapped density−bulk density)/tapped density
  Compressibility index: 30.7
[4]; powder of Example 3A
  Bulk density: 0.178 g/mL
  Tapped density: 0.256 g/mL
[4]; tapped density/bulk density
  Hausner ratio: 1.44
[5]
  Particle size distribution D(0.1): 2.09 μm
  Particle size distribution D(0.5): 7.86 μm
  Particle size distribution D(0.9): 25.42 μm

## C[C@H](C(=O)[O-])c1ccc(Nc2nc(C(F)(F)F)cs2)cc1.[Na+] [anhydrous DF2755A, sodium (2S)-2-(4-{[4-(trifluoromethyl)-1,3-thiazol-2-yl]amino}phenyl) propanoate]
CXCR1
  Inhibitory activity of CXCR1 receptor: selective dual potent inhibitory activity
CXCR2
  Inhibitory activity of CXCR2 receptor: selective dual potent inhibitory activity
[6]
  Oral pharmacokinetic profile: favorable
[7]; [8]
  Appearance after exposure: sticky hydrated solid
  Water content measured by Karl Fischer analysis after exposure: 17%
[7]; after exposure to humidity, about 25° C., 24 hours
  Amount of by-product of hydroxylation at position 4 of the thiazole ring (1H-NMR): about 50 % mol/mol
[7]; anhydrous form, absorbs water from the environment
  Hygroscopicity: highly hygroscopic
[7]; under the test conditions (50% R.H., about 25° C., 24 hours)
  Stability conclusion: both physically and chemically unstable

From US20260076949A1, “STABLE MONOHYDRATE OF DF2755A AND PROCESS FOR ITS PREPARATION” (Dompe' Farmaceutici SPA, priority 2023, published 2026)
